From ChEMBL document CHEMBL1133456, “Synthesis and anticonvulsant activity of novel and potent 6,7-methylenedioxyphthalazin-1(2H)-ones” (J Med Chem, 2000) come the findings set out here.

Data set [1] is described as follows: Anticonvulsant activity against audiogenic seizures in DBA/2 mice expressed as ED50 values in tonic phase. The class given is functional. Conditions: Mus musculus.
The nature of data set [2]: Relative lipophilicity expressed as Rm value. Type of data set: physicochemical. Conditions: octanol/water.
The nature of data set [3]: Anticonvulsant activity against audiogenic seizures in DBA/2 mice expressed as ED50 values in clonic phase. Particulars: Mus musculus. The class given is functional.
Data set [4] is described as follows: Toxic dose in DBA/2 mice. Type of data set: toxicity. Conditions: DBA/2, mouse, in vivo.
Data set [5] can be described thus: Ratio between TD50 and ED50 from the clonic phase of audiogenic seizures. The class given is ADME. Conditions: read-out: Protective index.
Data set [6] is described as follows: Anticonvulsant activity against audiogenic seizures in DBA/2 mice in clonic phase at a time interval of 30 min. Type of data set: functional. Conditions: Mus musculus, 0.5 h.
A short description of data set [7]: Anticonvulsant activity against audiogenic seizures in DBA/2 mice in clonic phase at a time interval of 120 min. Type of data set: functional. Particulars: Mus musculus, 2 h.
Data set [8] can be described thus: Anticonvulsant activity against audiogenic seizures in DBA/2 mice in clonic phase at a time interval of 15 min. Conditions: Mus musculus, 0.25 h. Type of data set: functional.
Data set [9] in a line: Anticonvulsant activity against Pentylenetetrazole (PTZ) induced seizures in Swiss mice. Type of data set: functional. Particulars: Mus musculus.
Data set [10] in a line: Anticonvulsant activity against audiogenic seizures in DBA/2 mice in clonic phase at a time interval of 60 min. The class given is functional. Conditions: Mus musculus, 1 h.
A short description of data set [11]: Anticonvulsant activity against AMPA induced seizures in DBA/2 mice expressed as ED50 values in clonic phase. Type of data set: functional. Particulars: Mus musculus.
Data set [12] can be described thus: Anticonvulsant activity against ATPA induced seizures in DBA/2 mice expressed as ED50 values in tonic phase. The class given is functional. Conditions: Mus musculus.
Data set [13] is described as follows: Anticonvulsant activity against KA induced seizures in DBA/2 mice. Type of data set: functional. Particulars: Mus musculus.
Data set [14] in a line: Anticonvulsant activity against audiogenic seizures in DBA/2 mice after pretreatment with Aniracetam expressed as ED50 values in clonic phase. The class given is functional, Mus musculus.
The nature of data set [15]: Anticonvulsant activity against ATPA induced seizures in DBA/2 mice expressed as ED50 values in clonic phase. The class given is functional. Particulars: Mus musculus.
Data set [16] is described as follows: Anticonvulsant activity against maximal electroshock (MES) induced seizures in Swiss mice. The class given is functional. Particulars: Mus musculus. Background: Protection in the maximal electroshock model is a classic sign of anticonvulsant action.
Data set [17] in a line: Anticonvulsant activity against AMPA induced seizures in DBA/2 mice expressed as ED50 values in tonic phase. The class given is functional. Particulars: Mus musculus.
Data set [18] can be described thus: Anticonvulsant activity against audiogenic seizures in DBA/2 mice in clonic phase at a time interval of 90 min. Type of data set: functional. Particulars: Mus musculus, 1.5 h.
Data set [19] can be described thus: Anticonvulsant activity against audiogenic seizures in DBA/2 mice in clonic phase at a time interval of 45 min. Type of data set: functional. Conditions: Mus musculus, 0.75 h.
The nature of data set [20]: Ratio between TD50 and ED50 from the clonic phase of audiogenic seizures in mice. The class given is ADME, organism-based. Conditions: mouse, in vivo; read-out: Protective index.
Data set [21] can be described thus: Toxic dose in DBA/2 mice; Values ranges from: 72.4-135. The class given is toxicity. Particulars: DBA/2, mouse, in vivo.
Data set [22] is described as follows: Anticonvulsant activity against audiogenic seizures in DBA/2 mice expressed as ED50 values in clonic phase; Values ranges from: 22.0-35.1. Type of data set: functional. Particulars: Mus musculus.
A short description of data set [23]: Anticonvulsant activity against audiogenic seizures in DBA/2 mice expressed as ED50 values in tonic phase; Values ranges from: 16.1-31.5. The class given is functional. Conditions: Mus musculus.
A short description of data set [24]: Toxic dose in DBA/2 mice; Values ranges from: 59.6-132. Type of data set: toxicity. Particulars: DBA/2, mouse, in vivo.

Take `CCNC(=O)n1nc(-c2ccc(N)cc2)c2cc3c(cc2c1=O)OCO3`: the figures for the ED50 in data set [1] and in data set [3] were 35.1 µmol/kg and 42.6 µmol/kg, respectively. In data set [2], this compound displayed a Rm of -0.235. Besides, in [4], the TD50 (commonly the dose at which the toxic effect under study appears in half of the subjects) is 91.1 µmol/kg. Also, the selectivity ratio in data set [5] is 2.1.
As for `O=[N+]([O-])c1ccc(-c2nnc(O)c3cc4c(cc23)OCO4)cc1`, the ED50 in data set [1] and in data set [3] was above 100 µmol/kg throughout.
With `CCCCNC(=O)n1nc(-c2cccc(N)c2)c2cc3c(cc2c1=O)OCO3`, the values for the ED50 in data set [1] and in data set [3] were 22.4 µmol/kg and 31.6 µmol/kg, respectively. For the same compound, the Rm in [2] is 0.01. This compound returned a TD50 in data set [4] of 101 µmol/kg. Besides, the selectivity ratio in data set [5] was found to be 3.2.
For the compound `CCCCNC(=O)n1nc(-c2ccc(N)cc2)c2cc3c(cc2c1=O)OCO3`, the ED50 in data set [6] is 3.25 µmol/kg; in data set [7], 44.1 µmol/kg; in [8], 13.9 µmol/kg; in data set [9] it was 41.9 µmol/kg; in data set [10] it was 11.2 µmol/kg; in data set [11], 37 µmol/kg. Also, the ED50 came out at 30.1 µmol/kg in data set [12]; 36.2 µmol/kg in [13]; 12.3 µM/kg in [14]; 17.6 µmol/kg in [14] (Mus musculus, read-out: ED50); 2.23 µmol/kg in data set [1]; 36.2 µmol/kg in data set [15]. For the same compound, the ED50 is 3.25 µmol/kg in data set [3]; 33.1 µmol/kg in data set [16]; 47.4 µmol/kg in data set [17]; 26.6 µmol/kg in data set [18]; 8.63 µmol/kg in [19]. Also, the Rm in [2] came out at 0.002. Moreover, the TD50 in data set [4] came out at 20.4 µmol/kg. The selectivity ratio in [5] amounted to 6.3.
Regarding `CCCCCNC(=O)n1nc(-c2ccc(N)cc2)c2cc3c(cc2c1=O)OCO3`, the figures for the ED50 in data set [1] and in data set [3] were 5.34 µmol/kg and 13.2 µmol/kg, respectively. The Rm in data set [2] was 0.101. This compound returned a TD50 in data set [4] of 56.6 µmol/kg. Besides, the selectivity ratio in data set [5] turned out to be 4.3.
`Nc1ccc(C2=NNC(=O)Cc3cc4c(cc32)OCO4)cc1`: the selectivity ratio in [20] worked out at 4.5. Further, the TD50 in data set [21] worked out at 99.1 µmol/kg. For the same compound, in data set [2], the Rm is listed as -0.43.
With `CCCNC(=O)n1nc(-c2ccc(N)cc2)c2cc3c(cc2c1=O)OCO3`, the ED50 in [1] turned out to be 6.82 µmol/kg; in [3], 15.8 µmol/kg. For the same compound, the Rm in [2] is -0.126. Further, the TD50 in [4] is 52.8 µmol/kg. The selectivity ratio in data set [5] was 3.3.
Regarding `Nc1ccc(-c2nn(C(=O)NC3CCCCC3)c(=O)c3cc4c(cc23)OCO4)cc1`, the ED50 in [1] was 26.2 µmol/kg; in [3] it was 28.4 µmol/kg. In data set [2], the Rm amounted to 0.108. The compound also displayed a TD50 in data set [4] of 63.8 µmol/kg. Moreover, the selectivity ratio in data set [5] was 2.2.
For `Sc1nnc(-c2ccccc2)c2cc3c(cc12)OCO3`, the selectivity ratio in data set [20] turned out to be 3.2. Besides, the ED50 in data set [22] stood at 27.8 µmol/kg; in data set [23], 22.5 µmol/kg. Besides, the Rm in data set [2] was found to be 0.05. In addition, the TD50 in [24] was 89 µmol/kg.
